EP0071892A2, “Phospholipid derivatives, process for preparation thereof and pharmaceutical composition of the same” (priority 1981, dated 1983)
Read-outs that look alike come from different tables or passages of the source.

Key:
Fibrosarcoma Meth A [1] = test: Test Method B: intrapleurally inoculated Meth A tumor in mice, injection into pleural cavity, mean survival time; type: in vivo, BALB/c mice; set-up: dose or concentration left out as unconfirmed; settings: for Anti-tumor activity (%) *d: comparison of mean survival time of medicated group (T) and control group (C), into pleural cavity three times; for Mean survival time: into pleural cavity three times (before 14 days, after 1 hour and after 3 days of tumor implantation), 5 x 10^5 Meth A cells intrapleurally
Protocol: Groups of eight female BALB/c mice, aged 8-9 weeks and weighing 18.0-22.5 g were used.
Fibrosarcoma Meth A (hereinafter referred to as Meth A) was successively transferred every 7 days into BALB/c mice by intraperitoneal inoculation of the ascites cells thereof and the Meth A in the ascites cells as harvested 6 or 7 days after the inoculation was used as tumor cells.
Each of the BALB/c mice was inoculated intrapleurally with 5 x 10^5 Meth A cells in 0.1 ml Hanks solution.
Test compound was dissolved in phosphate buffer saline solution, and was injected into pleural cavity to each of the mice in doses of 100 pg/0.05 ml/mouse three times, i.e. before 14 days, after 1 hour and after 3 days of tumor implantation.
The antitumor activity of the test compound was estimated by comparing mean survival time of the two groups. • T : Mean survival time of the medicated group • C : Mean survival time of the control group

Fibrosarcoma Meth A [2] = test: Test Method A: intradermally inoculated Meth A tumor in mice, intratumoral injection of test compound, tumor growth inhibition; type: in vivo, BALB/c mice; settings: 100 µg/mouse intratumorally once daily from Day 1 to Day 4 postimplant; for responders at 0.1 mg / inhibition in vivo at 0.1 mg: Meth-A; for responders at 0.1 mg: read-out: Ratio of tumor free mice [Number of tumor free mice/ Number of mice used as a group] (converted); for inhibition in vivo at 0.1 mg: Mus musculus, read-out: Tumor growth inhibition (%) [(1-T/c)x100]; for Mean of two diameters of the growing tumor: 1 x 10^5 Meth A cells intradermally
Protocol: Groups of six female BALB/c mice, aged 12 weeks and weighing 19 - 21 g were used.
Fib,rosarcoma Meth A (hereinafter referred to as Meth A) was successively transferred every 7 days into BALB/c mice by intraperitoneal inoculation of the ascites cells thereof and the Meth A in the ascites cells as harvested 6 days after the inoculation was used as tumor cells.
Each of the BALB/c mice was inoculated intradermally with 1 x 10^5 Meth A cells in 0.05 ml Hanks solution.
Test compound was dissolved in 0.5% methylcellulose saline solution, and was intratumorally injected to each of the mice in doses of 100 µg/mouse once daily from Day 1 to Day 4 postimplant.
The control group was given with a vehicle alone in the same way.
The antitumor effectiveness of the test compound was estimated by tumor growth inhibition (1-T/C). • T: Mean diameter of the growing tumor of the medicated group • C: Mean diameter of the growing tumor of the control group

CCCCCCCCCCCCCCCCCCOCC(COP(=O)([O-])OCC[n+]1ccccn1)OC (racemic) [3-(12), (rac)-1-0-Octadecyl-2-0-methyl-glycerol-3-[2-(1-pyridazinio)ethyl]phosphate]
Anti-tumor activity (%) *d (Fibrosarcoma Meth A [1]): 333% | Mean survival time (Fibrosarcoma Meth A [1]): 20.0 days

CCCCCCCCCCCCCCCCCCOCC(COP(=O)([O-])OCC[n+]1ccc(C)cc1)OC (racemic) [3-(9), (rac)-1-0-Octadecyl-2-0-methyl-glycerol-3-[2-(4-methyl-l-pyridinio)ethyl]phosphate]
Anti-tumor activity (%) *d (Fibrosarcoma Meth A [1]): 350% | Mean survival time (Fibrosarcoma Meth A [1]): 21.0 days

CCCCCCCCCCCCCCCCCCOCC(COP(=O)(O)OCCN1CCN(C)CC1)OC (racemic) [3-(16), (rac)-1-O-Octadecyl-2-0-methyl-glycerol-3-[2-(4-methyl-l-piperazinyl)ethyl]phosphate]
Anti-tumor activity (%) *d (Fibrosarcoma Meth A [1]): 350% | Mean survival time (Fibrosarcoma Meth A [1]): 21.0 days

CCCCCCCCCCCCCCCCCCOCC(COP(=O)(O)OCCN1CCN(CC)CC1)OC (racemic) [3-(3), (rac)-1-0-Octadecyl-2-0-methyl-glycerol-3-[2-(4-ethyl-l-piperazinyl)ethyl]phosphate]
Anti-tumor activity (%) *d (Fibrosarcoma Meth A [1]): 317% | Mean survival time (Fibrosarcoma Meth A [1]): 19.0 days

CCCCCCCCCCCCCCCCOCC(COP(=O)([O-])OCC[n+]1ccccc1)OCc1ccccc1 (racemic) [3-(26), (rac)-l-0-Hexadecyl-2-0-benzyl-glycerol-3-[2-(l-pyridinio)ethyl]phosphate]
Anti-tumor activity (%) *d (Fibrosarcoma Meth A [1]): >650% | Mean survival time (Fibrosarcoma Meth A [1]): >39.0 days

CCCCCCCCCCCCCCCCCCOCC(COP(=O)([O-])OCC[n+]1ccccc1)Sc1nncs1 (racemic) [8-(4), (rac)-1-0-Octadecyl-2-(1,3,4-thiadiazolyl-2-thio)-1,3-propanediol-3-[2-(1-pyridinio)ethyl]phosphate]
Anti-tumor activity (%) *d (Fibrosarcoma Meth A [1]): 417% | Mean survival time (Fibrosarcoma Meth A [1]): 25.0 days

CCCCCCCCCCCCCCCCOCC(COP(=O)(O)OCCN1CCN(C)CC1)OC (racemic) [3-(2), (rac)-1-0-Hexadecyl-2-0-methyl-glycerol-3-[2-(4-methyl-l-piperazinyl)ethyl]phosphate]
Anti-tumor activity (%) *d (Fibrosarcoma Meth A [1]): 350% | Mean survival time (Fibrosarcoma Meth A [1]): 21.0 days

CCCCCCCCCCCCCCCCCCOCC(COP(=O)(O)OCCn1ccnc1)OC (racemic) [3-(13), (rac)-1-0-Octadecyl-2-0-methyl-glycerol-3-[2-(1-imidazolyl)ethyl]phosphate]
Ratio of tumor free mice [Number of tumor free mice/ Number of mice used as a group] (Fibrosarcoma Meth A [2]; Day 21): 0/6 | responders at 0.1 mg (Fibrosarcoma Meth A [2]; Day 14): 0% | inhibition in vivo at 0.1 mg (Fibrosarcoma Meth A [2]; Day 14): 37% | inhibition in vivo at 0.1 mg (Fibrosarcoma Meth A [2]; Day 21): 31%

CCCCCCCCCCCCCCCCCCOCC(COP(=O)([O-])OCC[n+]1ccsc1)OC (racemic) [3-(22), (rac)-1-O-Octadecyl-2-0-methyl-glycerol-3-[2-(3-thiazolio)ethyl]phosphate]
Ratio of tumor free mice [Number of tumor free mice/ Number of mice used as a group] (Fibrosarcoma Meth A [2]; Day 21): 3/6 | responders at 0.1 mg (Fibrosarcoma Meth A [2]; Day 14): 50% | inhibition in vivo at 0.1 mg (Fibrosarcoma Meth A [2]; Day 14): 77% | inhibition in vivo at 0.1 mg (Fibrosarcoma Meth A [2]; Day 21): 68%

CCCCCCCCCCCCCCCCCCOCC(COP(=O)([O-])OCC[n+]1ccccc1)OCC (racemic) [3-(19), (rac)-1-0-Octadecyl-2-0-ethyl-glycerol-3-[2-(1-pyridinio)ethyl]phosphate]
Anti-tumor activity (%) *d (Fibrosarcoma Meth A [1]): 317% | Mean survival time (Fibrosarcoma Meth A [1]): 19.0 days

CCCCCCCCCCCCCCCCCCOCC(COP(=O)([O-])OCC[N+](C)(C)C)OC (racemic) [*e, reference compound]
Anti-tumor activity (%) *d (Fibrosarcoma Meth A [1]): 242% | Mean survival time (Fibrosarcoma Meth A [1]): 14.5 days

(rac)-1-O-Octadecyl-2-0-methyl-glycerol-3-[2-(N-methyl-4-morpholino)ethyl]phosphate [3-(15)]
Anti-tumor activity (%) *d (Fibrosarcoma Meth A [1]): 433% | Mean survival time (Fibrosarcoma Meth A [1]): 26.0 days

CCCCCCCCCCCCCCCCCCOCC(COP(=O)(O)OCCN1CCN(CCO)CC1)OC (racemic) [3-(7), (rac)-1-0-Octadecyl-2-0-methyl-glycerol-3-[2-[4-(2-hydroxyethyl)-1-piperazinyl]ethyl]phosphate]
Anti-tumor activity (%) *d (Fibrosarcoma Meth A [1]): 325% | Mean survival time (Fibrosarcoma Meth A [1]): 19.5 days

CCCCCCCCCCCCCCCCCCOCC(COP(=O)([O-])OCC[n+]1cccc(C)c1)OC (racemic) [3-(10), (rac)-1-0-Octadecyl-2-0-methyl-glycerol-3-(2-(3-methyl-1-pyridinio)ethyl]phosphate]
Anti-tumor activity (%) *d (Fibrosarcoma Meth A [1]): 364% | Mean survival time (Fibrosarcoma Meth A [1]): 25.5 days

CCCCCCCCCCCCCCCCCCOCC(O)COP(=O)([O-])OCC[n+]1ccccc1 (racemic) [3-(30), (rac)-1-0-Octadecyl-glycerol-3-[2-(1-pyridinio)ethyl]-phosphate]
Ratio of tumor free mice [Number of tumor free mice/ Number of mice used as a group] (Fibrosarcoma Meth A [2]; Day 21): 4/6 | responders at 0.1 mg (Fibrosarcoma Meth A [2]; Day 14): 66.7% | inhibition in vivo at 0.1 mg (Fibrosarcoma Meth A [2]; Day 14): 85% | inhibition in vivo at 0.1 mg (Fibrosarcoma Meth A [2]; Day 21): 84%

CCCCCCCCCCCCCCCCCCOCC(COP(=O)([O-])OCC[n+]1ccccc1)NC(=O)NC (racemic) [11-(2), (rac)-1-0-Octadecyl-2-(N'-methylureido)-1,3-propanediol-3-[2-(l-pyridinio)ethyl]phosphate]
Anti-tumor activity (%) *d (Fibrosarcoma Meth A [1]): 350% | Mean survival time (Fibrosarcoma Meth A [1]): 21.0 days

CCCCCCCCCCCCCCCCCCOCC(COP(=O)([O-])OCC[n+]1ccccc1)SC (racemic) [3-(31), (rac)-1-0-Octadecyl-2-methylthio-1,3-propanediol-3-[2-(l-pyridinio)ethyl]phosphate]
Anti-tumor activity (%) *d (Fibrosarcoma Meth A [1]): 358% | Mean survival time (Fibrosarcoma Meth A [1]): 21.5 days

CCCCCCCCCCCCCCCCCCOCCCOP(=O)([O-])OCC[n+]1ccccc1 [3-(29), (rac)-1-0-Octadecyl-1,3-propanediol-3-[2-(1-pyridinio)-ethyl]phosphate]
Anti-tumor activity (%) *d (Fibrosarcoma Meth A [1]): 264% | Mean survival time (Fibrosarcoma Meth A [1]): 18.5 days

CCCCCCCCCCCCCCCCCCOCC(COP(=O)([O-])OCC[n+]1ccn(C)c1)OC (racemic) [3-(25), (rac)-1-0-Octadecyl-2-0-methyl-glycerol-3-[2-(1-methyl-3-imidazolio)ethyl]phosphate]
Ratio of tumor free mice [Number of tumor free mice/ Number of mice used as a group] (Fibrosarcoma Meth A [2]; Day 21): 5/6 | responders at 0.1 mg (Fibrosarcoma Meth A [2]; Day 14): 83.3% | inhibition in vivo at 0.1 mg (Fibrosarcoma Meth A [2]; Day 14): 94% | inhibition in vivo at 0.1 mg (Fibrosarcoma Meth A [2]; Day 21): 93%

CCCCCCCCCCCCCCCCCCOCC(COP(=O)([O-])OCCNC(=O)C[n+]1ccccc1)OC (racemic) [5-(2), (rac)-1-0-Octadecyl-2-0-methyl-glycerol-3-[2-(1-pyridinioacetylamino)ethyl]phoshate]
Anti-tumor activity (%) *d (Fibrosarcoma Meth A [1]): 364% | Mean survival time (Fibrosarcoma Meth A [1]): 25.5 days

CCCCCCCCCCCCCCCCCCOCC(COP(=O)([O-])OCC[n+]1cccc(C(=O)OCC)c1)OC (racemic) [3-(23), (rac)-1-0-Octadecyl-2-0-methyl-glycerol-3-[2-(3-ethoxycarbonyl-1-pyridinio)ethyl]phosphate]
Ratio of tumor free mice [Number of tumor free mice/ Number of mice used as a group] (Fibrosarcoma Meth A [2]; Day 21): 3/6 | responders at 0.1 mg (Fibrosarcoma Meth A [2]; Day 14): 50% | inhibition in vivo at 0.1 mg (Fibrosarcoma Meth A [2]; Day 14): 77% | inhibition in vivo at 0.1 mg (Fibrosarcoma Meth A [2]; Day 21): 70%

CCCCCCCCCCCCCCCCCCOCC(COP(=O)([O-])OCC[n+]1ccccc1)NC(=O)OCC (racemic) [10-(6), (rac)-1-0-Octadecyl-2-ethoxycarbonylamino-1,3-propanediol-3-[2-(1-pyridinio)ethyl]phosphate]
Anti-tumor activity (%) *d (Fibrosarcoma Meth A [1]): <400% | Mean survival time (Fibrosarcoma Meth A [1]): 24.0 days

CCCCCCCCCCCCCCCCCCOCC(Cl)COP(=O)([O-])OCC[n+]1ccccc1 (racemic) [9-(4), (rac)-1-0-Octadecyl-2-chloro-1,3-propanediol-3-[2-(1-pyridinio)ethyl]phosphate]
Ratio of tumor free mice [Number of tumor free mice/ Number of mice used as a group] (Fibrosarcoma Meth A [2]; Day 21): 4/6 | responders at 0.1 mg (Fibrosarcoma Meth A [2]; Day 14): 66.7% | inhibition in vivo at 0.1 mg (Fibrosarcoma Meth A [2]; Day 14): 92% | inhibition in vivo at 0.1 mg (Fibrosarcoma Meth A [2]; Day 21): 86%

CCCCCCCCCCCCCCCCCCOCC(COP(=O)([O-])OCC[n+]1cccn1C)OC (racemic) [3-(18), (rac)-1-0-Octadecyl-2-0-methyl-glycerol-3-[2-(1-methyl-2-pyrazolio)ethyl]phosphate]
Anti-tumor activity (%) *d (Fibrosarcoma Meth A [1]): 325% | Mean survival time (Fibrosarcoma Meth A [1]): 19.5 days

CCCCCCCCCCCCCCCCCCOCC(COP(=O)([O-])OCC[n+]1cnn(C)c1)OC (racemic) [3-(21), (rac)-1-0-Octadecyl-2-0-methyl-glycerol-3-[2-(1-methyl-1,2,4-triazol-4-io)ethyl]phosphate]
Mean of two diameters of the growing tumor (Fibrosarcoma Meth A [2]; Day 14): 0 mm | Ratio of tumor free mice [Number of tumor free mice/ Number of mice used as a group] (Fibrosarcoma Meth A [2]; Day 21): 6/6 | Mean of two diameters of the growing tumor (Fibrosarcoma Meth A [2]; Day 21): 0 mm | responders at 0.1 mg (Fibrosarcoma Meth A [2]; Day 14): 100% | inhibition in vivo at 0.1 mg (Fibrosarcoma Meth A [2]; Day 14): 100% | inhibition in vivo at 0.1 mg (Fibrosarcoma Meth A [2]; Day 21): 100%

CCCCCCCCCCCCCCCCCCOCC(COP(=O)(O)OCCN1CCCCC1)OC (racemic) [3-(14), (rac)-l-O-Octadecyl-2-0-methyl-glycerol-3-(2-piperidinoethyl)phosphate]
Anti-tumor activity (%) *d (Fibrosarcoma Meth A [1]): 325% | Mean survival time (Fibrosarcoma Meth A [1]): 19.5 days
